Series [1] is described as follows: Effect of estramustine phosphate and clodronate on their mutual bioavailability (serum AUC0-24h, Cmax, serum estradiol) in patients. The procedure: Twelve male patients aged 62-80 were divided into two groups of six patients.
The first group of six patients were given 3200 mg daily of clodronate only for four days. On the fifth day the AUC0-24 h for the drug was calculated from serum concentrations of repeated blood samples. On the sixth day, 560 mg estramustine phosphate was add per oral to the clodronate treatment for the following four days. On day ten, the AUC0-24 h for both drugs was calculated.
The second group of six patients were give orally 560 mg daily of estramustine phosphate only for four days. On the fifth day the AUC0-24 h for the drug was calculated from serum concentrations of repeated blood samples. On the sixth day, 3200 mg clodronate was added to the estramustine phosphate treatment for the following four days. On day ten, the AUC0-24 h for both drugs was calculated.
The clodronate was provided as 400 mg capsules, and the estramustine phosphate used was estracyt in 140 mg capsules.
The method used in the analysis of the serum estramustine phosphate concentrations measures […] and is insensitive to any metabolites. The estradiol-related metabolites (estramustine and estradiol) were not analyized in connection with the bioanalysis. […] Unfortunately, estradiol was not measured after administration of estramustine phosphate alone.

For series [2], the system named is mouse calvaria. As to the kind of experiment: Bone resorption assay, organ culture with 45Ca-prelabeled mouse calvaria (PTH-stimulated 45Ca release). The series is classed as cell-based. The note with it: for bone resorption in vitro (in words): compound present during culture. The procedure: This example used the organ culture technique with mouse calvaria.
The organ culture technique was used with ^45Ca-prelabeled mouse calvaria. The method has been described by Lerner (1987) and Ljunggren et al. (1991). Newborn mice were injected subcutaneously with ^45CaCl (1.5 μCi/animal). After four days their calvaria were dissected, split into quarters and preincubated in phenol red free CMRL 1066 medium supplemented with 0.1% bovine serum albumin and 50 μg/ml gentamicin for 24 hours at 37° C. in a humidified atmosphere of 5% CO2 in air in the presence of indomethacin (1 μmol/l) and 10 nmol/l bovine parathyroid hormone (PTH). After washing the bone pieces, the medium was changed and cultures incubated for three more days in the same medium but without indomethacin in the presence or absence of estramustine phosphate or clodronate. Resorption was measured by assaying the ^45Ca liberated into the medium using a standard technique for liquid scintillation counting. Total ^45Ca was determined after hydrolysing the calvaria in 6 mol/l HCI overnight. Bone resorption was studied in various concentrations of estramustine phosphate and the effect of estramusine phosphate present only during the preincubation stage was checked in order to study its cytotoxcity.
Results are expressed as mean ±SEM, n=5 or 10. Inhibition percentage was calculated as follows [formula]

The mark [3] stands for this setting: present only during preincubation, then washed away, concentration not given.

“Also recorded” adds a separate entry of the source.

Regarding `O=P(O)(O)C(Cl)(Cl)P(=O)(O)O` [Clodronate, Disodium clodronate], in series [1] (human, in vivo, po), the “AUC0-24h and Cmax, alone versus concomitantly with the other drug (in words)” value was “did not differ significantly”; the “bioavailability when the other drug is added (in words)” value is recorded as “no effect”. In addition, the AUC0-24h Clodronate in series [1] (male, human, in vivo, 3200 mg) amounted to 19300 ng·h/mL. Besides, the “resorption, compound present only during preincubation (in words)” value in series [2] (setting [3]) was “also inhibits resorption”.

Turning to `C[C@]12CC[C@@H]3c4ccc(OC(=O)N(CCCl)CCCl)cc4CC[C@H]3[C@@H]1CC[C@@H]2OP(=O)([O-])[O-].[Na+].[Na+]` [Estramustine phosphate, Estramustine phosphate sodium], the “AUC0-24h and Cmax, alone versus concomitantly with the other drug (in words)” value in series [1] (patients, oral) was “differed statistically”. Further, the “bioavailability when the other drug is added (in words)” value in series [1] (patients, oral) is “almost doubled”. Moreover, the “resorption, compound present only during preincubation (in words)” value was “slightly increased” in series [2] (10 μmol/l), “strongly inhibited” in series [2] (100 μmol/l) and “PTH could not stimulate” in series [2] (setting [3]). Moreover, the “observation in culture medium” value in series [2] (Experiment 1, 1000 μmol/l) is “(precipitate)”. The “bone resorption in vitro (in words)” value in series [2] is “inhibited bone resorption in this in vitro model concentration-dependently and about as effectively as clodronate”; in series [2] (listed as estramustine phosphate sodium), “dose-dependently inhibited; also recorded: inhibits bone resorption in vitro”.

The record behind these values is US20040014729A1, “Use of estramustine phosphate in the treatment of bone metastasis” (priority 2003, published 2004).
